Data reported in article PMC9234589 (Heliyon, 2022).
“And” between values parts separate entries of the source, which are not always exact repeats. Equal entries are not always repeated. Values belong to the compound of their own block, whether it stands above or below them.

Tests used:
[1] = tested on: Drosophila melanogaster standard cross (ST), marker-heterozygous flies (mwh +/+ flr3); test: Drosophila wing spot test; type: in vivo
human lymphocytes = details: cited from earlier work
C. elegans = details: NIC 100 μM; cited from earlier work
[2] = tested on: Drosophila melanogaster high bioactivation cross (HB), marker-heterozygous flies (mwh +/+ flr3); test: Drosophila wing spot test; type: in vivo
[3] = tested on: A549 human adenocarcinoma cells; details: cited from earlier work
[4] = NIC 0.456 mM + RES 0.0004 mM vs NIC 0.456 mM
[5] = NIC 0.456 mM + RES 0.0004 mM vs RES 0.0004 mM
[6] = NIC 0.456 mM + RES 0.011 mM vs RES 0.011 mM
[7] = NIC 11.4 mM + RES 0.0004 mM vs RES 0.0004 mM
[8] = NIC […] + RES 0.0004 mM vs NIC […]
[9] = NIC […] + RES 0.0004 mM vs RES 0.0004 mM
[10] = ST cross, URE 20 mM positive control, vs water
[11] = HB cross, URE 20 mM positive control, vs water

Structure (SMILES): CN1CCC[C@H]1c1cccnc1 [NIC, nicotine]
- Mean mwh clone size class ([1]; NIC 0.050 mM + RES 0.011 mM): 1.34
- Number of surviving flies ([1]; ST cross, NIC 11.4 mM): decreased
- Genotoxicity (in words) ([1]; ST cross, NIC […] and 11.4 mM, increased small and total spots): genotoxic
- Concentrations at which genotoxic in in vitro assays (human lymphocytes): > 500 nM
- Genotoxicity, comet assay (in words) (C. elegans): genotoxic
- Lethality ([2]; HB cross, NIC 11.4 mM): lethal
- Clone formation observed ([2]; NIC 0.456 mM): 0.95 per 105 per cell Cells division
- Large single spots (>2 cells) per fly (number of spots) ([2]; NIC 0.456 mM): 0.07 (007)
- Mean mwh clone size class ([2]; NIC 0.456 mM): 1.64
- Small single spots (1-2 cells) per fly (number of spots) ([2]; NIC 0.456 mM): 0.38 (038)
- Total spots per fly (number of spots) ([2]; NIC 0.456 mM): 0.48(048)
- Twin spots per fly (number of spots) ([2]; NIC 0.456 mM): 0.03 (003)
- mwh clones ([2]; NIC 0.456 mM): 47
- Clone formation observed ([2]; NIC 0.456 mM + RES 0.0004 mM): 0.95 per 105 per cell Cells division and 0.90 per 105 per cell Cells division
- Large single spots (>2 cells) per fly (number of spots) ([2]; NIC 0.456 mM + RES 0.0004 mM): 0.11 (007)
- Mean mwh clone size class ([2]; NIC 0.456 mM + RES 0.0004 mM): 2.21
- Small single spots (1-2 cells) per fly (number of spots) ([2]; NIC 0.456 mM + RES 0.0004 mM): 0.36 (023)
- Total spots per fly (number of spots) ([2]; NIC 0.456 mM + RES 0.0004 mM): 0.47 (030)
- Twin spots per fly (number of spots) ([2]; NIC 0.456 mM + RES 0.0004 mM): 0.00 (000)
- mwh clones ([2]; NIC 0.456 mM + RES 0.0004 mM): 29
- Clone formation control connected [2, 4]: -0.05 per 105 per cell Cells division
- Large single spots statistical diagnosis [2, 4]: -
- Small single spots statistical diagnosis [2, 4]: -
- Total spots statistical diagnosis [2, 4]: -
- Twin spots statistical diagnosis [2, 4]: -
- Clone formation control connected [2, 5]: -0.25 per 105 per cell Cells division
- Large single spots statistical diagnosis [2, 5]: -
- Small single spots statistical diagnosis [2, 5]: -
- Total spots statistical diagnosis [2, 5]: -
- Twin spots statistical diagnosis [2, 5]: -
- Large single spots (>2 cells) per fly (number of spots) ([2]; NIC 0.456 mM + RES 0.011 mM): 0.10 (006)
- Small single spots (1-2 cells) per fly (number of spots) ([2]; NIC 0.456 mM + RES 0.011 mM): 0.37 (022)
- Clone formation control connected [2, 6]: 0.20 per 105 per cell Cells division
- Small single spots statistical diagnosis [2, 6]: -
- Clone formation observed ([2]; NIC 11.4 mM + RES 0.0004 mM): 0.80 per 105 per cell Cells division
- Large single spots (>2 cells) per fly (number of spots) ([2]; NIC 11.4 mM + RES 0.0004 mM): 0.00 (000)
- Mean mwh clone size class ([2]; NIC 11.4 mM + RES 0.0004 mM): 1.25
- Small single spots (1-2 cells) per fly (number of spots) ([2]; NIC 11.4 mM + RES 0.0004 mM): 0.40 (004)
- Total spots per fly (number of spots) ([2]; NIC 11.4 mM + RES 0.0004 mM): 0.40 (004)
- Twin spots per fly (number of spots) ([2]; NIC 11.4 mM + RES 0.0004 mM): 0.00 (000)
- mwh clones ([2]; NIC 11.4 mM + RES 0.0004 mM): 04
- Clone formation control connected [2, 7]: -0.40 per 105 per cell Cells division
- Large single spots statistical diagnosis [2, 7]: -
- Small single spots statistical diagnosis [2, 7]: -
- Total spots statistical diagnosis [2, 7]: -
- Twin spots statistical diagnosis [2, 7]: -
- Large single spots statistical diagnosis [2, 8]: -
- Twin spots statistical diagnosis [2, 8]: -
- Large single spots statistical diagnosis [2, 9]: -
- Small single spots statistical diagnosis [2, 9]: -
- Total spots statistical diagnosis [2, 9]: -
- Twin spots statistical diagnosis [2, 9]: -

Structure (SMILES): Oc1ccc(/C=C/c2cc(O)cc(O)c2)cc1 [RES, Resveratrol]
- Effect on cell survival (in words) ([3]; RES 0.02 mM): inhibited cell survival
- Effect on cell proliferation and viability (in words) ([3]; RES 0.001 and 0.005 mM): promoted cell proliferation and viability
- Clone formation observed ([1]; RES 0.0004 mM): 1.15 per 105 per cell Cells division
- Large single spots (>2 cells) per fly (number of spots) ([1]; RES 0.0004 mM): 0.07 (004)
- Mean mwh clone size class ([1]; RES 0.0004 mM): 1.64
- Small single spots (1-2 cells) per fly (number of spots) ([1]; RES 0.0004 mM): 0.53 (031)
- Total spots per fly (number of spots) ([1]; RES 0.0004 mM): 0.60 (035)
- Twin spots per fly (number of spots) ([1]; RES 0.0004 mM): 0.00 (0)
- mwh clones ([1]; RES 0.0004 mM): 33
- Clone formation observed ([1]; RES 0.011 mM): 1.15 per 105 per cell Cells division and 1.35 per 105 per cell Cells division
- Large single spots (>2 cells) per fly (number of spots) ([1]; RES 0.011 mM): 0.03 (002) and 0.05 (005)
- Mean mwh clone size class ([1]; RES 0.011 mM): 1.84 and 1.58
- Small single spots (1-2 cells) per fly (number of spots) ([1]; RES 0.011 mM): 0.47 (027) and 0.58 (057)
- Total spots per fly (number of spots) ([1]; RES 0.011 mM): 0.57 (033) and 0.67 (066)
- Twin spots per fly (number of spots) ([1]; RES 0.011 mM): 0.07 (004) and 0.04 (004)
- Clone formation observed ([2]; RES 0.0004 mM): 1.20 per 105 per cell Cells division
- Large single spots (>2 cells) per fly (number of spots) ([2]; RES 0.0004 mM): 0.06 (005)
- Mean mwh clone size class ([2]; RES 0.0004 mM): 1.84
- Small single spots (1-2 cells) per fly (number of spots) ([2]; RES 0.0004 mM): 0.52 (045)
- Total spots per fly (number of spots) ([2]; RES 0.0004 mM): 0.59 (051)
- Twin spots per fly (number of spots) ([2]; RES 0.0004 mM): 0.01 (001)
- mwh clones ([2]; RES 0.0004 mM): 51
- Mean mwh clone size class ([2]; RES 0.011 mM): 1.43 and 1.56
- Twin spots per fly (number of spots) ([2]; RES 0.011 mM): 0.02 (001)

- Clone formation per 105 cells per cell division, observed ([1]; ST cross, URE 20 mM): 2.80
- Mean mvh clone size class ([1]; ST cross, URE 20 mM): 1.45
- mwh clones ([1]; ST cross, URE 20 mM): 38
- Small single spots (1-2 cells), Spots per Fly (Number of Spots) [1, 10]: 1.21 (34) Spots per Fly
- Small single spots (1-2 cells), Statistical Diagnosis [1, 10]: +
- Total spots statistical diagnosis [1, 10]: +
- Total spots, Spots per Fly (Number of Spots) [1, 10]: 1.36 (38) Spots per Fly
- Twin spots statistical diagnosis [1, 10]: -
- Twin spots, Spots per Fly (Number of Spots) [1, 10]: 0.04 (1) Spots per Fly
- large single spots (>2 cells), Spots per Fly (Number of Spots) [1, 10]: 0.11 (03) Spots per Fly
- large single spots (>2 cells), Statistical Diagnosis [1, 10]: -
- Clone formation per 105 cells per cell division, control connected ([1]; ST cross, URE 20 mM, control water): 1.65
- Clone formation per 105 cells per cell division, observed ([2]; HB cross, URE 20 mM): 6.35
- Mean mvh clone size class ([2]; HB cross, URE 20 mM): 1.82
- mwh clones ([2]; HB cross, URE 20 mM): 71
- Small single spots (1-2 cells), Spots per Fly (Number of Spots) [2, 11]: 2.52 (58) Spots per Fly
- Small single spots (1-2 cells), Statistical Diagnosis [2, 11]: +
- Total spots statistical diagnosis [2, 11]: +
- Total spots, Spots per Fly (Number of Spots) [2, 11]: 3.09 (71) Spots per Fly
- Twin spots statistical diagnosis [2, 11]: +
- Twin spots, Spots per Fly (Number of Spots) [2, 11]: 0.17 (4) Spots per Fly
- large single spots (>2 cells), Spots per Fly (Number of Spots) [2, 11]: 0.39 (09) Spots per Fly
- large single spots (>2 cells), Statistical Diagnosis [2, 11]: +
- Clone formation per 105 cells per cell division, control connected ([2]; HB cross, URE 20 mM, control water): 4.85
Structure (SMILES): CCOC(N)=O [URE, ethyl carbamate]
